Experiments:
[1] = tested on: wheat; assay: Test A pre-/postemergence herbicide test; type: in vivo, Triticum aestivum; details: Postemergence
How it was run: (§1)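 Scoring was visual, relative to untreated controls, on a 0–100 scale after about 10 greenhouse days. Preemergence treatment used a directed soil spray over seeded loam/sand; postemergence treatment targeted one- to two-leaf plants of 2–10 cm.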

[2] = tested on: barnyardgrass; assay: Test A pre-/postemergence herbicide test; type: in vivo, Echinochloa crus-galli
How it was run: as §1

[3] = tested on: pigweed; assay: Test A pre-/postemergence herbicide test; type: in vivo, Amaranthus retroflexus
How it was run: as §1

[4] = tested on: barnyardgrass; assay: Test B flooded paddy test; type: in vivo, Echinochloa crus-galli; details: 500 g ai/ha, Flood; scale of 0 to 100 where 0 is no effect and 100 is complete control
How it was run: (§2)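 In-water application to pots flooded 3 cm deep, plants at 2-leaf stage. Held in greenhouse 13–15 days at constant flood depth. Scored 0–100 by eye against controls.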

[5] = tested on: sedge, umbrella; assay: Test B flooded paddy test; type: in vivo, Cyperus difformis; details: 500 g ai/ha, Flood; scale of 0 to 100 where 0 is no effect and 100 is complete control
How it was run: as §2

[6] = tested on: galium; assay: Test A postemergence herbicide test; type: in vivo, Galium aparine
How it was run: (§3)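 Ratings compare treated with untreated plants roughly 10 days after a postemergence application made at the one- to two-leaf stage. Scoring uses 0–100, where 0 means no effect and 100 complete control.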

[7] = tested on: kochia; assay: Test A pre-/postemergence herbicide test; type: in vivo, Kochia scoparia
How it was run: as §1

[8] = tested on: ducksalad; assay: Test B flooded paddy test; type: in vivo, Heteranthera limosa; details: 500 g ai/ha, Flood; scale of 0 to 100 where 0 is no effect and 100 is complete control
How it was run: as §2

[9] = tested on: giant foxtail; assay: Test A pre-/postemergence herbicide test; type: in vivo, Setaria faberii
How it was run: as §1

[10] = tested on: ryegrass, Italian; assay: Test A pre-/postemergence herbicide test; type: in vivo, Lolium multiflorum
How it was run: as §1

[11] = tested on: blackgrass; assay: Test A postemergence herbicide test; type: in vivo, Alopecurus myosuroides
How it was run: as §3

[12] = tested on: ragweed; assay: Test A pre-/postemergence herbicide test; type: in vivo, Ambrosia elatior
How it was run: as §1

[13] = tested on: rice; assay: Test B flooded paddy test; type: in vivo, Oryza sativa; details: 500 g ai/ha, Flood; scale of 0 to 100 where 0 is no effect and 100 is complete control
How it was run: as §2

[14] = tested on: corn; assay: Test A pre-/postemergence herbicide test; type: in vivo, Zea mays; details: Postemergence
How it was run: as §1

[15] = 125 g ai/ha, visual rating on 0 to 100 scale (0 no effect, 100 complete control), approx. 10 days
[16] = 500 g ai/ha, 0 to 100 scale (0 no effect, 100 complete control)
[17] = Postemergence, 125 g ai/ha, visual rating on 0 to 100 scale (0 no effect, 100 complete control), approx. 10 days
[18] = Postemergence, 500 g ai/ha, 0 to 100 scale (0 no effect, 100 complete control)
[19] = Preemergence, 125 g ai/ha, 0 to 100 scale where 0 is no effect and 100 is complete control
[20] = Preemergence, 500 g ai/ha, visual rating on 0 to 100 scale (0 no effect, 100 complete control)

Compound | Plant response rating, Wheat [1, 15] | Plant response rating, Wheat [1, 16] | Plant response rating, Barnyardgrass [2, 17] | Plant response rating, Barnyardgrass [2, 18] | Plant response rating, Barnyardgrass [2, 19] | Barnyardgrass plant response rating [2, 20] | Plant response rating, Pigweed [3, 17] | Plant response rating, Pigweed [3, 18] | Plant response rating, Pigweed [3, 19] | Pigweed plant response rating [3, 20] | Plant response rating, Barnyardgrass [4] | Plant response rating, Sedge, Umbrella [5] | Plant response rating, Galium [6, 15] | Plant response rating, Galium [6, 16] | Plant response rating, Kochia [7, 17] | Plant response rating, Kochia [7, 18] | Plant response rating, Kochia [7, 19] | Kochia plant response rating [7, 20] | Plant response rating, Ducksalad [8] | Plant response rating, Foxtail, Giant [9, 17] | further results
O=C1NCC(c2cccc(-n3ccc(C(F)(F)F)n3)c2)C1C(=O)Nc1ccccc1C(F)(F)F (stereo not drawn) [Compound 329] | 0 | 0 | 0 | 0 | 0 | 0 | 0 | 0 | 0 | 0 | 0 | 0 | 0 | 0 | 0 | 0 | 0 | 0 | 0 | 0 | Plant response rating, Foxtail, Giant [9, 18]: 30; Plant response rating, Foxtail, Giant [9, 19]: 0; Foxtail, Giant plant response rating [9, 20]: 60; Plant response rating, Ryegrass, Italian [10, 17]: 0; Plant response rating, Ryegrass, Italian [10, 18]: 0; Plant response rating, Ryegrass, Italian [10, 19]: 0; Ryegrass, Italian plant response rating [10, 20]: 0; Plant response rating, Blackgrass [11, 15]: 0; Plant response rating, Blackgrass [11, 16]: 0; Plant response rating, Ragweed [12, 17]: 0; Plant response rating, Ragweed [12, 18]: 0; Plant response rating, Ragweed [12, 19]: 0; Ragweed plant response rating [12, 20]: 0; Plant response rating, Rice [13]: 0; Plant response rating, Corn [14, 15]: 0; Plant response rating, Corn [14, 16]: 0
O=C1NCC(c2cccc(Oc3ccccc3)c2)C1C(=O)Nc1ccccc1F (stereo not drawn) [Compound 330] | 0 | 0 | 60 | 60 | 60 | 70 | 0 | 0 | 0 | 20 | 0 | 0 | 20 | 30 | 0 | 0 | 20 | 20 | 100 | 80 | Plant response rating, Foxtail, Giant [9, 18]: 80; Plant response rating, Foxtail, Giant [9, 19]: 50; Foxtail, Giant plant response rating [9, 20]: 80; Plant response rating, Ryegrass, Italian [10, 17]: 0; Plant response rating, Ryegrass, Italian [10, 18]: 0; Plant response rating, Ryegrass, Italian [10, 19]: 30; Ryegrass, Italian plant response rating [10, 20]: 40; Plant response rating, Blackgrass [11, 15]: 0; Plant response rating, Blackgrass [11, 16]: 0; Plant response rating, Ragweed [12, 17]: 0; Plant response rating, Ragweed [12, 18]: 0; Plant response rating, Ragweed [12, 19]: 0; Ragweed plant response rating [12, 20]: 0; Plant response rating, Rice [13]: 0; Plant response rating, Corn [14, 15]: 0; Plant response rating, Corn [14, 16]: 0
O=C1NCC(c2cccc(Oc3ccccc3)c2)C1C(=O)Nc1cccc(F)c1F (stereo not drawn) [Compound 332] | 0 | 20 | 40 | 50 | 70 | 80 | 0 | 0 | 0 | 0 | 40 | 0 | 0 | 20 | 0 | 20 | 0 | 0 | 75 | 30 | Plant response rating, Foxtail, Giant [9, 18]: 80; Plant response rating, Foxtail, Giant [9, 19]: 80; Foxtail, Giant plant response rating [9, 20]: 90; Plant response rating, Ryegrass, Italian [10, 17]: 0; Plant response rating, Ryegrass, Italian [10, 18]: 20; Plant response rating, Ryegrass, Italian [10, 19]: 0; Ryegrass, Italian plant response rating [10, 20]: 0; Plant response rating, Blackgrass [11, 15]: 0; Plant response rating, Blackgrass [11, 16]: 0; Plant response rating, Ragweed [12, 17]: 0; Plant response rating, Ragweed [12, 18]: 0; Plant response rating, Ragweed [12, 19]: 0; Ragweed plant response rating [12, 20]: 0; Plant response rating, Rice [13]: 0; Plant response rating, Corn [14, 15]: 0; Plant response rating, Corn [14, 16]: 0
O=C1NCC(c2cccc(Oc3ccccc3)c2)C1C(=O)Nc1ccc(F)c(F)c1F (stereo not drawn) [Compound 333] | 0 | 20 | 20 | 60 | 50 | 90 | 0 | 20 | 0 | 0 | 0 | 0 | 0 | 40 | 0 | 20 | 0 | 0 | 20 | 50 | Plant response rating, Foxtail, Giant [9, 18]: 80; Plant response rating, Foxtail, Giant [9, 19]: 80; Foxtail, Giant plant response rating [9, 20]: 90; Plant response rating, Ryegrass, Italian [10, 17]: 0; Plant response rating, Ryegrass, Italian [10, 18]: 30; Plant response rating, Ryegrass, Italian [10, 19]: 0; Ryegrass, Italian plant response rating [10, 20]: 20; Plant response rating, Blackgrass [11, 15]: 0; Plant response rating, Blackgrass [11, 16]: 30; Plant response rating, Ragweed [12, 17]: 0; Plant response rating, Ragweed [12, 18]: 20; Plant response rating, Ragweed [12, 19]: 0; Ragweed plant response rating [12, 20]: 0; Plant response rating, Rice [13]: 0; Plant response rating, Corn [14, 15]: 0; Plant response rating, Corn [14, 16]: 20
